In US12662449B2 (NACUITY PHARMACEUTICALS, INC., priority 2017, dated 2026):

How the values were obtained:
Format in all cases: physicochemical
[1] = Stability and dissociation of NACA/urea co-crystal (secondary co-crystal screen)
Protocol: NACA/Urea Co-crystal. A primary co-crystal screen was conducted where 28 potential co-crystal formers (CCFs) were screened (Table 18) in 6 solvent systems under 2 process relevant crystallization conditions, namely, thermal maturation and evaporation. A NACA/urea co-crystal was identified (FIG. 15). […] NMR analysis confirmed an approximate stoichiometric content of urea contained within the material. The material appeared to be stable under ambient conditions and elevated temperature (80° C.) but unstable when stored at high humidity for prolonged periods, showing degradation to the diNACA. […] An additional DSC experiment with post-XRPD analysis confirmed that the exothermic event observed during the DSC cooling cycle is a recrystallization to NACA.

[2] = Micronization of NACA and stability of the 1% NACA formulation
Excerpt: The relation between micronization conditions and an initial increase of the degradation product diNACA was further investigated. […] Therefore, the zirconium oxide milling process was further investigated and successfully optimized regarding particle size distribution, milling parameters and impurity profile for the 1% NACA formulation. […] The particle size distribution by laser diffraction analysis was ×10=1.3 μm, ×50=4.7 μm and ×90=12.3 μm. Batches were prepared and found to be stable for up to 4 weeks at ambient temperature.

[3] = Oxidation of NACA on exposure to air; settings: exposed to air
Excerpt: These efforts to increase purity focused on the major impurities as measured by HPLC, namely, diNACA, DTT and cyclic DTT. […] Ethanol and methyl t-butyl Ether (MTBE) used in the reduction and solvent-exchange were degassed in an effort to reduce diNACA.

[4] = Solubilization of NACA in ORA-SWEET and water
Protocol: A study was conducted to determine the solubilization of NACA in ORA-SWEET® (Ora-Sweet is a commercially available syrup vehicle containing water, sucrose, glycerin, sorbitol, flavoring, buffering agents (citric acid and/or sodium phosphate), methyl paraben and potassium sorbate, pH 4.2 manufactured by Paddock Laboratories, Inc., Minneapolis, Minnesota). HPLC equipment and glass containers and stirrers were utilized.
Therefore, NACA was dissolved in 50 mL water followed by 50 mL Ora-Sweet, shaken to dissolve in an opaque plastic bottle with closure and provided to subject for self-administration (oral ingestion).

[5] = Stability of NACA/excipient mixtures (excipient screening); settings: NACA/excipient mixtures after 4 weeks at 40° C./75% RH
Protocol: NACA Tablets, 250 mg, are packaged in high density polyethylene (HDPE) bottles with foil induction seal and a white polyproplyene screw-top closure. Excipients used for the formulation meet compendial standards. Lactose functions as a filler. Microcrystalline cellulose functions as a filler. Croscarmellose Sodium functions as a disintegrant. Stearic Acid functions as a lubricant. Excipients were screened by assessing the stability of NACA in mixtures with each excipient.

## CC(=O)N[C@@H](CS)C(N)=O.NC(N)=O [NACA/urea pattern 1 material]
[1]; ambient conditions and 80° C.
  Stability under ambient conditions and elevated temperature: stable
[1]; deionized water and solvent/water mixtures with a high water activity
  Dissociation in water and high water activity mixtures: found to dissociate
[1]; organic solvents and solvent/water mixtures with low water activity
  Dissociation in organic solvents and low water activity mixtures: No signs of dissociation
[1]; stored at high humidity for prolonged periods, degradation to diNACA
  Stability at high humidity: unstable

## CC(=O)N[C@@H](CS)C(N)=O
[2]; stainless steel grinding jars
  Change of degradation product diNACA on micronization: time dependent increase of the degradation product diNACA
[2]; zirconium oxide jars and balls
  Change of degradation product diNACA on micronization: did not lead to an initial increase of the degradation product diNACA
[3]
  Oxidation on exposure to air: Oxidation of NACA occurs
[4]; NACA at 80 mg/ml in ORA-SWEET
  Stirring time required to achieve a solution: 20 to 30 min
[4]; water, shaking for 30 seconds
  Dissolution in water: readily dissolved

## CC(=O)N[C@H](CS)C(N)=O
[5]
  % Assay: 95.3%
